Assay results from the supplement of paper PMC10307832.

Experiments:
Assay in all cases: relative viability (nuclei count vs DMSO), 5 days (fraction); higher = more cells survive
EMC-BAC-2 = tested on: EMC-BAC-2
Procedure, shortened: (§1)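 After 5 days of treatment, lung cancer cells in 1536-well plates were fixed and stained in a single step (final 0.05% Triton X-100, 1% formaldehyde, 1 ug/ml Hoechst) and their nuclei counted on 4× images. Treatment had been applied by pin tool the day after seeding as one drug alone or as a fixed anchor-drug dose with five library-drug doses (not always all listed) in √10 steps. Relative viability is the nuclei count of treated wells divided by that of vehicle wells, and values are medians of duplicate plates.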

EPLC-272H = tested on: EPLC-272H
Procedure, shortened: as §1

H3255 = tested on: H3255
Procedure, shortened: as §1

HOP-62 = tested on: HOP-62
Procedure, shortened: as §1

LCLC-97TM1 = tested on: LCLC-97TM1
Procedure, shortened: as §1

LXF-289 = tested on: LXF-289
Procedure, shortened: as §1

NCI-H1563 = tested on: NCI-H1563
Procedure, shortened: as §1

NCI-H1650 = tested on: NCI-H1650
Procedure, shortened: as §1

NCI-H1915 = tested on: NCI-H1915
Procedure, shortened: as §1

NCI-H1993 = tested on: NCI-H1993
Procedure, shortened: as §1

NCI-H2009 = tested on: NCI-H2009
Procedure, shortened: as §1

NCI-H2023 = tested on: NCI-H2023
Procedure, shortened: as §1

NCI-H2085 = tested on: NCI-H2085
Procedure, shortened: as §1

NCI-H2126 = tested on: NCI-H2126
Procedure, shortened: as §1

NCI-H2342 = tested on: NCI-H2342
Procedure, shortened: as §1

NCI-H2347 = tested on: NCI-H2347
Procedure, shortened: as §1

NCI-H322M = tested on: NCI-H322M
Procedure, shortened: as §1

NCI-H647 = tested on: NCI-H647
Procedure, shortened: as §1

NCI-H661 = tested on: NCI-H661
Procedure, shortened: as §1

NCI-H727 = tested on: NCI-H727
Procedure, shortened: as §1

PC-14 = tested on: PC-14
Procedure, shortened: as §1

SK-LU-1 = tested on: SK-LU-1
Procedure, shortened: as §1

SW 1573 = tested on: SW 1573
Procedure, shortened: as §1

Which results are given for `C=C1C(=O)O[C@@H](CCCCCCCC)[C@@H]1C(=O)O` [C-75] + COc1cc2c(Oc3ccc(NC(=O)C4(C(=O)Nc5ccc(F)cc5)CC4)cc3F)ccnc2cc1OCCCN1CCOCC1 [Foretinib] (partner 0.25 µM)?
relative viability (EMC-BAC-2; first compound 0.08 µM): 1.02; relative viability (EMC-BAC-2; first compound 0.253 µM): 1.1; relative viability (EMC-BAC-2; first compound 0.8 µM): 0.99; relative viability (EMC-BAC-2; first compound 2.53 µM): 0.904; relative viability (EMC-BAC-2; first compound 8 µM): 1.05; relative viability (EPLC-272H; first compound 0.08 µM): 0.686; relative viability (EPLC-272H; first compound 0.253 µM): 0.936; relative viability (EPLC-272H; first compound 0.8 µM): 0.554; relative viability (EPLC-272H; first compound 2.53 µM): 0.429; relative viability (EPLC-272H; first compound 8 µM): 0.386; relative viability (H3255; first compound 0.08 µM): 0.837; relative viability (H3255; first compound 0.253 µM): 0.927; relative viability (H3255; first compound 0.8 µM): 0.73; relative viability (H3255; first compound 2.53 µM): 0.736; relative viability (H3255; first compound 8 µM): 0.983; relative viability (HOP-62; first compound 0.08 µM): 1.1; relative viability (HOP-62; first compound 0.253 µM): 1.06; relative viability (HOP-62; first compound 0.8 µM): 1.14; relative viability (HOP-62; first compound 2.53 µM): 0.966; relative viability (HOP-62; first compound 8 µM): 1.09; relative viability (LCLC-97TM1; first compound 0.08 µM): 0.934; relative viability (LCLC-97TM1; first compound 0.253 µM): 1.01; relative viability (LCLC-97TM1; first compound 0.8 µM): 0.951; relative viability (LCLC-97TM1; first compound 2.53 µM): 0.847; relative viability (LCLC-97TM1; first compound 8 µM): 0.926; relative viability (LXF-289; first compound 0.08 µM): 0.949; relative viability (LXF-289; first compound 0.253 µM): 0.965; relative viability (LXF-289; first compound 0.8 µM): 0.932; relative viability (LXF-289; first compound 2.53 µM): 0.654; relative viability (LXF-289; first compound 8 µM): 0.948; relative viability (NCI-H1563; first compound 0.08 µM): 0.953; relative viability (NCI-H1563; first compound 0.253 µM): 0.955; relative viability (NCI-H1563; first compound 0.8 µM): 0.883; relative viability (NCI-H1563; first compound 2.53 µM): 0.844; relative viability (NCI-H1563; first compound 8 µM): 0.877; relative viability (NCI-H1650; first compound 0.08 µM): 1.2; relative viability (NCI-H1650; first compound 0.253 µM): 1.41; relative viability (NCI-H1650; first compound 2.53 µM): 1.11; relative viability (NCI-H1650; first compound 8 µM): 1.04; relative viability (NCI-H1915; first compound 0.08 µM): 1.04; relative viability (NCI-H1915; first compound 0.253 µM): 1.1; relative viability (NCI-H1915; first compound 0.8 µM): 1.03; relative viability (NCI-H1915; first compound 2.53 µM): 1.07; relative viability (NCI-H1915; first compound 8 µM): 1.05; relative viability (NCI-H1993; first compound 0.08 µM): 0.898; relative viability (NCI-H1993; first compound 0.253 µM): 0.782; relative viability (NCI-H1993; first compound 0.8 µM): 0.851; relative viability (NCI-H1993; first compound 2.53 µM): 0.786; relative viability (NCI-H1993; first compound 8 µM): 0.88; relative viability (NCI-H2009; first compound 0.08 µM): 1.21; relative viability (NCI-H2009; first compound 0.253 µM): 1.2; relative viability (NCI-H2009; first compound 0.8 µM): 1.12; relative viability (NCI-H2009; first compound 2.53 µM): 1.13; relative viability (NCI-H2009; first compound 8 µM): 1.04; relative viability (NCI-H2023; first compound 0.08 µM): 0.798; relative viability (NCI-H2023; first compound 0.253 µM): 1.05; relative viability (NCI-H2023; first compound 0.8 µM): 0.714; relative viability (NCI-H2023; first compound 2.53 µM): 0.943; relative viability (NCI-H2023; first compound 8 µM): 1.07; relative viability (NCI-H2085; first compound 0.08 µM): 0.842; relative viability (NCI-H2085; first compound 0.253 µM): 0.879; relative viability (NCI-H2085; first compound 0.8 µM): 0.921; relative viability (NCI-H2085; first compound 2.53 µM): 0.782; relative viability (NCI-H2085; first compound 8 µM): 1.14; relative viability (NCI-H2126; first compound 0.08 µM): 1.1; relative viability (NCI-H2126; first compound 0.253 µM): 1.27; relative viability (NCI-H2126; first compound 0.8 µM): 1.2; relative viability (NCI-H2126; first compound 2.53 µM): 1.08; relative viability (NCI-H2126; first compound 8 µM): 1.07; relative viability (NCI-H2342; first compound 0.08 µM): 1.11; relative viability (NCI-H2342; first compound 0.253 µM): 1.13; relative viability (NCI-H2342; first compound 0.8 µM): 1.04; relative viability (NCI-H2342; first compound 2.53 µM): 0.923; relative viability (NCI-H2342; first compound 8 µM): 1.17; relative viability (NCI-H2347; first compound 0.08 µM): 0.83; relative viability (NCI-H2347; first compound 0.253 µM): 1.21; relative viability (NCI-H2347; first compound 2.53 µM): 0.876; relative viability (NCI-H2347; first compound 8 µM): 0.472; relative viability (NCI-H322M; first compound 0.08 µM): 0.928; relative viability (NCI-H322M; first compound 0.253 µM): 1.33; relative viability (NCI-H322M; first compound 0.8 µM): 0.839; relative viability (NCI-H322M; first compound 2.53 µM): 0.902; relative viability (NCI-H322M; first compound 8 µM): 0.964; relative viability (NCI-H647; first compound 0.08 µM): 1.23; relative viability (NCI-H647; first compound 0.253 µM): 1.12; relative viability (NCI-H647; first compound 0.8 µM): 0.998; relative viability (NCI-H647; first compound 2.53 µM): 1.18; relative viability (NCI-H647; first compound 8 µM): 0.97; relative viability (NCI-H661; first compound 0.08 µM): 1.06; relative viability (NCI-H661; first compound 0.253 µM): 1.01; relative viability (NCI-H661; first compound 0.8 µM): 0.998; relative viability (NCI-H661; first compound 2.53 µM): 0.901; relative viability (NCI-H661; first compound 8 µM): 0.896; relative viability (NCI-H727; first compound 0.08 µM): 0.796; relative viability (NCI-H727; first compound 0.253 µM): 1.33; relative viability (NCI-H727; first compound 0.8 µM): 0.695; relative viability (NCI-H727; first compound 8 µM): 0.917; relative viability (PC-14; first compound 0.08 µM): 0.949; relative viability (PC-14; first compound 0.253 µM): 0.911; relative viability (PC-14; first compound 0.8 µM): 0.956; relative viability (PC-14; first compound 2.53 µM): 0.74; relative viability (PC-14; first compound 8 µM): 0.891; relative viability (SK-LU-1; first compound 0.08 µM): 0.794; relative viability (SK-LU-1; first compound 0.253 µM): 0.721; relative viability (SK-LU-1; first compound 0.8 µM): 0.881; relative viability (SK-LU-1; first compound 2.53 µM): 0.736; relative viability (SK-LU-1; first compound 8 µM): 0.766; relative viability (SW 1573; first compound 0.08 µM): 1.03; relative viability (SW 1573; first compound 0.253 µM): 0.943; relative viability (SW 1573; first compound 0.8 µM): 0.951; relative viability (SW 1573; first compound 2.53 µM): 0.74; relative viability (SW 1573; first compound 8 µM): 0.731
